# Laboratory results published in US12643871B2, “Aryl formamide compound containing chiral sulfur oxide or salt thereof, preparation method, herbicidal composition and use thereof” (Qingdao Kingagroot Chemical Compound Co., Ltd., priority 2019, dated 2026).
# Columns and labels:
# Assay in all cases: Weeding effect in post-emergence stage
# Type in all cases: in vivo
# Conditions in all cases: 250 g/ha; 2 leaf stage; 15 days after application; fresh weight control rate
# [1] = tested on: Echinochloa crusgali
# Source text: (§1) The activity level criteria for harmful plant damage (i.e., growth control rate) are as follows: • Level 5: growth control rate is above 85%; • Level 4: growth control rate is greater than or equal to 60% and less than 85%; • Level 3: growth control rate is greater than or equal to 40% and less than 60%; • Level 2: growth control rate is greater than or equal to 20% and less than 40%; • Level 1: growth control rate is greater than or equal to 5% and less than 20%; • Level 0: growth control rate is less than 5%.
# (§2) The above growth control rates are fresh weight control rates.
# (§3) Experiment on weeding effect in post-emergence stage: monocotyledonous and dicotyledonous weed seeds (Descurainia sophia, Capsella bursa-pastoris, Galium aparine, Stellaria media, Lithospermum arvense, Rorippa indica, Alopecurus aequalis, Beckmannia syzigachne, Sclerochloa dura, Phleum paniculatum, Bromus japonicus, Aegilops tauschii, Phalaris arundinacea, Amaranthus retroflexus, Chenopodiaceae, Commelina communis, Sonchus arvensis, convolvulus arvensis, Cirsium setosum, Solanum nigrum, Acalypha australis, Digitaria sanguinalis, Echinochloa crusgalli, Setaria viridis, Setaria glauca, Leptochloa chinensis, Monochoria vaginalis, Sagittaria trifolia, Scirpus juncoides, Cyperus rotundus, Cyperus iria, Cyperus difformis, Fimbristylis, Portulaca oleracea, Xanthium sibiricum, Pharbitis nil) and major crop seeds (wheat, corn, rice, soybean, cotton, oilseed rape, millet, sorghum, potato, sesame, ricinus) were placed in plastic pots filled with soil, then covered with 0.5-2 cm of soil, allowed to grow in a good greenhouse environment. After 2 weeks of sowing, the test plants were treated in the 2 leaf stage. The tested compounds of the present invention were respectively dissolved in acetone, then added with Tween 80 and 1.5 liter/ha of emulsifiable concentrate of methyl oleate as synergist, diluted with a certain amount of water to obtain a solution with a certain concentration, and sprayed with a spray tower onto the plants. After the application, the plants were cultured for 15 days in the greenhouse, and then the experimental results of the weeding were counted. The doses of the used compounds were 500, 250, 125, 60, 30, 15 g/ha, and the averages were obtained by repeating for three times.
# [2] = tested on: Amaranthus retroflexus
# Source text: as §1, §2, §3
# [3] = tested on: Digitaria sanguinalis
# Source text: as §1, §2, §3
Compound,"weeding effect in post-emergence stage, activity level (growth control rate), Echinochloa crusgali [1]","weeding effect in post-emergence stage, activity level (growth control rate), Amaranthus retroflexus [2]","weeding effect in post-emergence stage, activity level (growth control rate), Digitaria sanguinalis [3]"
Cc1nnc(NC(=O)c2ccc(C)c([S@+]([O-])CC(C)C)c2C)o1 [Compound 484],5 (Level 5: growth control rate is above 85%),5 (Level 5: growth control rate is above 85%),–
Cc1nnc(NC(=O)c2ccc(C)c([S@+]([O-])CC(F)(F)F)c2C)o1 [Compound 485],5 (Level 5: growth control rate is above 85%),5 (Level 5: growth control rate is above 85%),–
Cc1nnc(NC(=O)c2ccc(C(C)C)c([S@@+](C)[O-])c2C)o1 [Compound 486],5 (Level 5: growth control rate is above 85%),5 (Level 5: growth control rate is above 85%),–
Cc1nnc(NC(=O)c2ccc(S(C)(=O)=O)c([S@@+](C)[O-])c2C)o1 [Compound 491],5 (Level 5: growth control rate is above 85%),5 (Level 5: growth control rate is above 85%),–
CCC[S@@+]([O-])c1c(S(C)(=O)=O)ccc(C(=O)Nc2nnc(C)o2)c1C [Compound 492],5 (Level 5: growth control rate is above 85%),5 (Level 5: growth control rate is above 85%),–
Cc1nnc(NC(=O)c2ccc(S(C)(=O)=O)c([S@+]([O-])C(C)C)c2C)o1 [Compound 493],5 (Level 5: growth control rate is above 85%),5 (Level 5: growth control rate is above 85%),–
C=CC[S@@+]([O-])c1c(S(C)(=O)=O)ccc(C(=O)Nc2nnc(C)o2)c1C [Compound 496],5 (Level 5: growth control rate is above 85%),5 (Level 5: growth control rate is above 85%),–
C#CC[S@@+]([O-])c1c(S(C)(=O)=O)ccc(C(=O)Nc2nnc(C)o2)c1C [Compound 497],5 (Level 5: growth control rate is above 85%),5 (Level 5: growth control rate is above 85%),–
Cc1nnc(NC(=O)c2ccc(S(C)(=O)=O)c([S@+]([O-])CC3CC3)c2C)o1 [Compound 498],5 (Level 5: growth control rate is above 85%),5 (Level 5: growth control rate is above 85%),–
Cc1nnc(NC(=O)c2ccc(S(C)(=O)=O)c([S@+]([O-])CCF)c2C)o1 [Compound 499],5 (Level 5: growth control rate is above 85%),5 (Level 5: growth control rate is above 85%),–
Cc1nnc(NC(=O)c2ccc(S(C)(=O)=O)c([S@+]([O-])CC(F)(F)F)c2C)o1 [Compound 500],5 (Level 5: growth control rate is above 85%),5 (Level 5: growth control rate is above 85%),–
Cc1nnc(NC(=O)c2ccc(S(C)(=O)=O)c([S@+]([O-])CC(C)F)c2C)o1 (stereo partly drawn) [Compound 501],5 (Level 5: growth control rate is above 85%),5 (Level 5: growth control rate is above 85%),–
Cc1c(C(=O)Nc2nnnn2C)ccc(S(C)(=O)=O)c1[S@@+](C)[O-] [Compound 511],5 (Level 5: growth control rate is above 85%),5 (Level 5: growth control rate is above 85%),–
CCC[S@@+]([O-])c1c(S(C)(=O)=O)ccc(C(=O)Nc2nnnn2C)c1C [Compound 512],5 (Level 5: growth control rate is above 85%),5 (Level 5: growth control rate is above 85%),–
Cc1c(C(=O)Nc2nnnn2C)ccc(S(C)(=O)=O)c1[S@+]([O-])C(C)C [Compound 513],5 (Level 5: growth control rate is above 85%),5 (Level 5: growth control rate is above 85%),–
Cc1c(C(=O)Nc2nnnn2C)ccc(S(C)(=O)=O)c1[S@+]([O-])CC(C)C [Compound 515],5 (Level 5: growth control rate is above 85%),5 (Level 5: growth control rate is above 85%),–
C=CC[S@@+]([O-])c1c(S(C)(=O)=O)ccc(C(=O)Nc2nnnn2C)c1C [Compound 516],5 (Level 5: growth control rate is above 85%),5 (Level 5: growth control rate is above 85%),–
C#CC[S@@+]([O-])c1c(S(C)(=O)=O)ccc(C(=O)Nc2nnnn2C)c1C [Compound 517],5 (Level 5: growth control rate is above 85%),5 (Level 5: growth control rate is above 85%),–
CSCC[S@@+]([O-])c1c(C(F)(F)F)ccc(C(=O)Nc2nnnn2C)c1SC [Compound 595],5 (Level 5: growth control rate is above 85%),5 (Level 5: growth control rate is above 85%),5 (Level 5: growth control rate is above 85%)
CSc1c(C(=O)Nc2nnnn2C)ccc(C(F)(F)F)c1[S@+]([O-])CCF [Compound 596],5 (Level 5: growth control rate is above 85%),5 (Level 5: growth control rate is above 85%),5 (Level 5: growth control rate is above 85%)
CSC(=O)C[S@@+]([O-])c1c(C(F)(F)F)ccc(C(=O)Nc2nnc(C)o2)c1F [Compound 597],5 (Level 5: growth control rate is above 85%),5 (Level 5: growth control rate is above 85%),5 (Level 5: growth control rate is above 85%)
CSCCC[S@@+]([O-])c1c(C(F)(F)F)ccc(C(=O)Nc2nnc(C)o2)c1F [Compound 598],5 (Level 5: growth control rate is above 85%),5 (Level 5: growth control rate is above 85%),5 (Level 5: growth control rate is above 85%)
